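A five-concentration, 48-hour dose response in 96-well plates underlies each endpoint, interpolated linearly between surrounding concentrations. Definition used: TGI = concentration required for complete inhibition of growth.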
What was measured:
Experiment in all cases: NCI anticancer screen, dose series, 48 h
786-0 renal = test system: 786-0 renal
A498 renal = test system: A498 renal
A549 NSCLC = test system: A549 NSCLC
ACHN renal = test system: ACHN renal
CAKI-1 renal = test system: CAKI-1 renal
COLO 205 colon = test system: COLO 205 colon
DLD-1 colon = test system: DLD-1 colon
DMS 114 small cell lung = test system: DMS 114 small cell lung
DMS 273 small cell lung = test system: DMS 273 small cell lung
EKVX NSCLC = test system: EKVX NSCLC
HCC-2998 colon = test system: HCC-2998 colon
HCT-116 colon = test system: HCT-116 colon
HCT-15 colon = test system: HCT-15 colon
HL-60(TB) leukemia = test system: HL-60(TB) leukemia
HOP-18 NSCLC = test system: HOP-18 NSCLC
HOP-62 NSCLC = test system: HOP-62 NSCLC
HOP-92 NSCLC = test system: HOP-92 NSCLC
HT29 colon = test system: HT29 colon
IGROV1 ovarian = test system: IGROV1 ovarian
K-562 leukemia = test system: K-562 leukemia
KM12 colon = test system: KM12 colon
KM20L2 colon = test system: KM20L2 colon
LOX IMVI melanoma = test system: LOX IMVI melanoma
LXFL 529 NSCLC = test system: LXFL 529 NSCLC
M14 melanoma = test system: M14 melanoma
M19-MEL melanoma = test system: M19-MEL melanoma
MOLT-4 leukemia = test system: MOLT-4 leukemia
NCI-H226 lung = test system: NCI-H226 lung
NCI-H23 lung = test system: NCI-H23 lung
NCI-H460 lung = test system: NCI-H460 lung
NCI-H522 lung = test system: NCI-H522 lung
OVCAR-3 ovarian = test system: OVCAR-3 ovarian
OVCAR-4 ovarian = test system: OVCAR-4 ovarian
OVCAR-5 ovarian = test system: OVCAR-5 ovarian
OVCAR-8 ovarian = test system: OVCAR-8 ovarian
RPMI-8226 leukemia = test system: RPMI-8226 leukemia
RXF 393 renal = test system: RXF 393 renal
SF-268 CNS = test system: SF-268 CNS
SF-295 CNS = test system: SF-295 CNS
SF-539 CNS = test system: SF-539 CNS
SK-MEL-2 melanoma = test system: SK-MEL-2 melanoma
SK-MEL-28 melanoma = test system: SK-MEL-28 melanoma
SK-MEL-5 melanoma = test system: SK-MEL-5 melanoma
SK-OV-3 ovarian = test system: SK-OV-3 ovarian
SN12C renal = test system: SN12C renal
SNB-19 CNS = test system: SNB-19 CNS
SNB-75 CNS = test system: SNB-75 CNS
SNB-78 CNS = test system: SNB-78 CNS
SR leukemia = test system: SR leukemia
SW-620 colon = test system: SW-620 colon
TK-10 renal = test system: TK-10 renal
U251 CNS = test system: U251 CNS
UACC-257 melanoma = test system: UACC-257 melanoma
UACC-62 melanoma = test system: UACC-62 melanoma
UO-31 renal = test system: UO-31 renal
XF 498 CNS = test system: XF 498 CNS
CCRF-CEM leukemia = test system: CCRF-CEM leukemia
MALME-3M melanoma = test system: MALME-3M melanoma

Structure (SMILES): COc1ccccc1NC(=O)CC(=O)n1nc(C)c(N=Nc2ccccc2F)c1C
- TGI (786-0 renal): > 100 µM
- TGI (A498 renal): > 100 µM
- TGI (A549 NSCLC): > 100 µM
- TGI (ACHN renal): > 100 µM
- TGI (CAKI-1 renal): > 100 µM
- TGI (COLO 205 colon): > 100 µM
- TGI (DLD-1 colon): > 100 µM
- TGI (DMS 114 small cell lung): > 100 µM
- TGI (DMS 273 small cell lung): > 100 µM
- TGI (EKVX NSCLC): > 100 µM
- TGI (HCC-2998 colon): > 100 µM
- TGI (HCT-116 colon): > 31.6 µM
- TGI (HCT-15 colon): > 100 µM
- TGI (HL-60(TB) leukemia): > 100 µM
- TGI (HOP-18 NSCLC): > 100 µM
- TGI (HOP-62 NSCLC): > 83.9 µM
- TGI (HOP-92 NSCLC): > 100 µM
- TGI (HT29 colon): > 100 µM
- TGI (IGROV1 ovarian): > 100 µM
- TGI (K-562 leukemia): > 31.6 µM
- TGI (KM12 colon): > 100 µM
- TGI (KM20L2 colon): > 100 µM
- TGI (LOX IMVI melanoma): > 100 µM
- TGI (LXFL 529 NSCLC): > 100 µM
- TGI (M14 melanoma): > 100 µM
- TGI (M19-MEL melanoma): > 100 µM
- TGI (MOLT-4 leukemia): > 31.6 µM
- TGI (NCI-H226 lung): > 100 µM
- TGI (NCI-H23 lung): > 100 µM
- TGI (NCI-H460 lung): > 100 µM
- TGI (NCI-H522 lung): > 100 µM
- TGI (OVCAR-3 ovarian): > 100 µM
- TGI (OVCAR-4 ovarian): > 100 µM
- TGI (OVCAR-5 ovarian): > 100 µM
- TGI (OVCAR-8 ovarian): > 100 µM
- TGI (RPMI-8226 leukemia): > 100 µM
- TGI (RXF 393 renal): > 100 µM
- TGI (SF-268 CNS): > 93.3 µM
- TGI (SF-295 CNS): > 100 µM
- TGI (SF-539 CNS): > 64 µM
- TGI (SK-MEL-2 melanoma): > 100 µM
- TGI (SK-MEL-28 melanoma): > 100 µM
- TGI (SK-MEL-5 melanoma): > 100 µM
- TGI (SK-OV-3 ovarian): 83.6 µM
- TGI (SN12C renal): > 100 µM
- TGI (SNB-19 CNS): > 100 µM
- TGI (SNB-75 CNS): 28.3 µM
- TGI (SNB-78 CNS): > 31.6 µM
- TGI (SR leukemia): > 100 µM
- TGI (SW-620 colon): > 100 µM
- TGI (TK-10 renal): > 100 µM
- TGI (U251 CNS): > 100 µM
- TGI (UACC-257 melanoma): > 100 µM
- TGI (UACC-62 melanoma): > 100 µM
- TGI (UO-31 renal): > 100 µM
- TGI (XF 498 CNS): > 83.3 µM

Structure (SMILES): O=C(CCN(CCO)CCO)Nc1ccc2c(c1)C(=O)c1ccc(NC(=O)CCN(CCO)CCO)cc1C2=O
- TGI (786-0 renal): 32 µM
- TGI (A498 renal): 37.9 µM
- TGI (A549 NSCLC): > 100 µM
- TGI (ACHN renal): > 100 µM
- TGI (CAKI-1 renal): 32.2 µM
- TGI (CCRF-CEM leukemia): 39.5 µM
- TGI (COLO 205 colon): 29.5 µM
- TGI (DMS 114 small cell lung): 19.6 µM
- TGI (DMS 273 small cell lung): 22.1 µM
- TGI (EKVX NSCLC): 55 µM
- TGI (HCC-2998 colon): 8.52 µM
- TGI (HCT-116 colon): 33.2 µM
- TGI (HCT-15 colon): 19.8 µM
- TGI (HL-60(TB) leukemia): 45.7 µM
- TGI (HOP-18 NSCLC): > 100 µM
- TGI (HOP-62 NSCLC): 98.3 µM
- TGI (HOP-92 NSCLC): > 100 µM
- TGI (HT29 colon): > 100 µM
- TGI (IGROV1 ovarian): 50.7 µM
- TGI (K-562 leukemia): 74.4 µM
- TGI (KM12 colon): 31.2 µM
- TGI (KM20L2 colon): > 100 µM
- TGI (LOX IMVI melanoma): 56.5 µM
- TGI (LXFL 529 NSCLC): 16.2 µM
- TGI (M14 melanoma): 38.3 µM
- TGI (M19-MEL melanoma): 26.6 µM
- TGI (MALME-3M melanoma): 27.9 µM
- TGI (MOLT-4 leukemia): 44.9 µM
- TGI (NCI-H226 lung): 44.2 µM
- TGI (NCI-H23 lung): > 100 µM
- TGI (NCI-H460 lung): 22.7 µM
- TGI (NCI-H522 lung): 19.7 µM
- TGI (OVCAR-3 ovarian): 51.3 µM
- TGI (OVCAR-4 ovarian): > 100 µM
- TGI (OVCAR-5 ovarian): > 100 µM
- TGI (OVCAR-8 ovarian): > 100 µM
- TGI (RPMI-8226 leukemia): > 100 µM
- TGI (RXF 393 renal): 79.4 µM
- TGI (SF-268 CNS): 60.6 µM
- TGI (SF-295 CNS): > 100 µM
- TGI (SF-539 CNS): 22.3 µM
- TGI (SK-MEL-2 melanoma): 16.8 µM
- TGI (SK-MEL-28 melanoma): 62.6 µM
- TGI (SK-MEL-5 melanoma): 40.7 µM
- TGI (SK-OV-3 ovarian): > 100 µM
- TGI (SN12C renal): > 100 µM
- TGI (SNB-19 CNS): 86.3 µM
- TGI (SNB-75 CNS): > 100 µM
- TGI (SNB-78 CNS): 54.8 µM
- TGI (SR leukemia): > 100 µM
- TGI (SW-620 colon): 33.4 µM
- TGI (TK-10 renal): > 100 µM
- TGI (U251 CNS): > 100 µM
- TGI (UACC-257 melanoma): > 100 µM
- TGI (UACC-62 melanoma): 27.8 µM
- TGI (UO-31 renal): 22.1 µM
- TGI (XF 498 CNS): 25 µM

From PubChem BioAssay (NCI)
